Holding throughout (conditions): banded MIC grade
The test system of assay [1] is A. terreus 49. Kind of assay: Minimum inhibitory concentration, YAG medium. It is filed as cell-based, Aspergillus terreus. In a few lines:
(§1)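 Growth inhibition was read as absorbance at 485 nm after spores of Aspergillus spp. were exposed for 24 hrs at 35° C to doubling dilutions of the compound. Dilutions were made in water starting from a 5 mg/mL DMSO stock, and MIC values were expressed in mg/L.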

Assay [2] deals with A. fumigatus 210. Kind of assay: Minimum inhibitory concentration, YAG medium. It is filed as cell-based, Aspergillus fumigatus. In short, it runs like this:
(§2)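 Broth microdilution in YAG medium; inoculum 1-2×10^4 cfu/mL; compound 50-0.05 mg/L in doubling steps, from DMSO stock. 24 h, 35° C. Read OD 485 nm; MIC = lowest conc. inhibiting growth >70% vs no-drug control, in mg/L.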

Assay [3] has as its system C. parapsilosis. Description: Minimum inhibitory concentration, RPMI medium. It is filed as cell-based. In a few lines:
(§3)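 Growth inhibition was judged from optical density at 485 nm per well after 24-48 hrs at 35° C. Test compound came from a 5 mg/mL DMSO stock, serially doubled in water before testing in RPMI 1640.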

Assay [4] has as its system C. tropicalis. Description: Minimum inhibitory concentration, RPMI medium. It is filed as cell-based. In a few lines:
as §3

Assay [5] concerns C. glabrata. Kind of assay: Minimum inhibitory concentration, RPMI medium. It is filed as cell-based. In a few lines:
as §3

Assay [6] has as its system A. niger. Description: Minimum inhibitory concentration, RPMI medium. It is filed as cell-based. In short, it runs like this:
as §3

Assay [7] relates to A. terreus. Description: Minimum inhibitory concentration, RPMI medium. It is filed as cell-based. In a few lines:
as §3

Assay [8] deals with C. krusei. Description: Minimum inhibitory concentration, RPMI medium. It is filed as cell-based. In a few lines: as §3
Assay [9] relates to A. terreus 49. Description: Minimum inhibitory concentration, RPMI medium. It is filed as cell-based. In a few lines: as §3
Assay [10] deals with A. flavus. Kind of assay: Minimum inhibitory concentration, RPMI medium. It is filed as cell-based. In short, it runs like this:
as §3

Assay [11] has as its system C. albicans. Description: Minimum inhibitory concentration, RPMI medium. It is filed as cell-based. In a few lines:
as §3

The test system of assay [12] is Aspergillus flavus. Kind of assay: Minimum inhibitory concentration, YAG medium. It is filed as cell-based. In a few lines:
as §1

The subject of assay [13] is Aspergillus terreus. Kind of assay: Minimum inhibitory concentration, YAG medium. It is filed as cell-based. In short, it runs like this: as §1
The subject of assay [14] is Aspergillus niger. Kind of assay: Minimum inhibitory concentration, YAG medium. It is filed as cell-based. In short, it runs like this: as §1
The test system of assay [15] is Aspergillus fumigatus. Description: Minimum inhibitory concentration, YAG medium. It is filed as cell-based. In a few lines: as §2
For assay [16], the system named is A. fumigatus. Description: Minimum inhibitory concentration, RPMI medium. It is filed as cell-based. In short, it runs like this: (§4)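 Broth microdilution in RPMI 1640 (2% glucose, 0.135 M MOPS, pH 7.0) at 1-2×10^4 cfu/mL, testing 50-0.05 mg/L in doubling steps. After 24-48 hrs at 35° C, OD at 485 nm was read, and the MIC was taken as the lowest drug level suppressing growth by >80% relative to drug-free wells.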

Assay [17] deals with A. fumigatus 210. Kind of assay: Minimum inhibitory concentration, RPMI medium. It is filed as cell-based. In a few lines: as §4

Take `NC1=NN=C(CCCCOCCCc2ccc(F)cc2F)CS1`: the “MIC grade, A. TERREUS 49, YAG media” value in assay [1] is recorded as 3 (3: 0.2-1 mg/L). Also, in [2], the “MIC grade, A. FUMIGATUS 210, YAG media” value is 3 (3: 0.2-1 mg/L). For the same compound, the “MIC grade, C. PARAPSILOSIS, RPMI media” value in assay [3] is given as 4 (4: <1 mg/L). Besides, in assay [4], the “MIC grade, C. TROPICALIS, RPMI media” value is reported as 3 (3: 1-5 mg/L). Further, the “MIC grade, C. GLABRATA, RPMI media” value in assay [5] is given as 2 (2: 5-20 mg/L). The “MIC grade, A. NIGER, RPMI media” value in assay [6] was 2 (2: 5-20 mg/L). Also, in [7], the “MIC grade, A. TERREUS, RPMI media” value is 2 (2: 5-20 mg/L). The “MIC grade, C. KRUSEI, RPMI media” value in [8] is 4 (4: <1 mg/L). Further, in assay [9], the “MIC grade, A. TERREUS 49, RPMI media” value is 2 (2: 5-20 mg/L). For the same compound, the “MIC grade, A. FLAVUS, RPMI media” value in [10] is reported as 3 (3: 1-5 mg/L). The “MIC grade, C. ALBICANS, RPMI media” value in [11] is given as 4 (4: <1 mg/L). Also, the “MIC grade, A. FLAVUS, YAG media” value in assay [12] is 4 (4: <0.2 mg/L). Moreover, the “MIC grade, A. TERREUS, YAG media” value in assay [13] is on record as 3 (3: 0.2-1 mg/L). In addition, in [14], the “MIC grade, A. NIGER, YAG media” value is recorded as 3 (3: 0.2-1 mg/L). In [15], the “MIC grade, A. FUMIGATUS, YAG media” value was 3 (3: 0.2-1 mg/L). In [16], the “MIC grade, A. FUMIGATUS, RPMI media” value is listed as 2 (2: 5-20 mg/L). In addition, the “MIC grade, A. FUMIGATUS 210, RPMI media” value in [17] is 1 (1: ≥20 mg/L).

Take `NC1=NN=C(CCCCOCc2cccc(CCc3ccccc3)c2)CS1`: in [1], the “MIC grade, A. TERREUS 49, YAG media” value is listed as 2 (2: 1-5 mg/L). Also, the “MIC grade, A. FUMIGATUS 210, YAG media” value in [2] is 1 (1: ≥5 mg/L). In addition, the “MIC grade, C. PARAPSILOSIS, RPMI media” value in [3] is recorded as 2 (2: 5-20 mg/L). Besides, the “MIC grade, C. TROPICALIS, RPMI media” value in assay [4] was 2 (2: 5-20 mg/L). Also, in [5], the “MIC grade, C. GLABRATA, RPMI media” value was 1 (1: ≥20 mg/L). In addition, in assay [6], the “MIC grade, A. NIGER, RPMI media” value is recorded as 1 (1: ≥20 mg/L). For the same compound, the “MIC grade, A. TERREUS, RPMI media” value in [7] is 1 (1: ≥20 mg/L). Moreover, the “MIC grade, C. KRUSEI, RPMI media” value in [8] is 2 (2: 5-20 mg/L). Besides, in assay [9], the “MIC grade, A. TERREUS 49, RPMI media” value is recorded as 1 (1: ≥20 mg/L). The “MIC grade, A. FLAVUS, RPMI media” value in [10] is 2 (2: 5-20 mg/L). Also, the “MIC grade, C. ALBICANS, RPMI media” value in assay [11] is reported as 2 (2: 5-20 mg/L). Besides, the “MIC grade, A. FLAVUS, YAG media” value in [12] is 2 (2: 1-5 mg/L). Also, in assay [13], the “MIC grade, A. TERREUS, YAG media” value is 2 (2: 1-5 mg/L). For the same compound, in assay [14], the “MIC grade, A. NIGER, YAG media” value is reported as 2 (2: 1-5 mg/L). The “MIC grade, A. FUMIGATUS, YAG media” value in assay [15] is given as 2 (2: 1-5 mg/L). Also, the “MIC grade, A. FUMIGATUS, RPMI media” value in [16] is on record as 1 (1: ≥20 mg/L). The “MIC grade, A. FUMIGATUS 210, RPMI media” value in assay [17] is 1 (1: ≥20 mg/L).

Turning to `NC1=NN=C(CCCCOCc2cccc(C(F)(F)F)c2)CS1`, the “MIC grade, A. TERREUS 49, YAG media” value in assay [1] was 2 (2: 1-5 mg/L). Further, in [2], the “MIC grade, A. FUMIGATUS 210, YAG media” value was 3 (3: 0.2-1 mg/L). Besides, the “MIC grade, C. PARAPSILOSIS, RPMI media” value in assay [3] is on record as 2 (2: 5-20 mg/L). In addition, the “MIC grade, C. TROPICALIS, RPMI media” value in assay [4] is recorded as 2 (2: 5-20 mg/L). For the same compound, in [5], the “MIC grade, C. GLABRATA, RPMI media” value is 1 (1: ≥20 mg/L). For the same compound, the “MIC grade, A. NIGER, RPMI media” value in [6] is 2 (2: 5-20 mg/L). Besides, the “MIC grade, A. TERREUS, RPMI media” value in [7] is listed as 2 (2: 5-20 mg/L). Moreover, the “MIC grade, C. KRUSEI, RPMI media” value in assay [8] is 2 (2: 5-20 mg/L). Besides, the “MIC grade, A. TERREUS 49, RPMI media” value in [9] is listed as 2 (2: 5-20 mg/L). Further, the “MIC grade, A. FLAVUS, RPMI media” value in assay [10] was 2 (2: 5-20 mg/L). The “MIC grade, C. ALBICANS, RPMI media” value in [11] is reported as 3 (3: 1-5 mg/L). In addition, the “MIC grade, A. FLAVUS, YAG media” value in assay [12] was 3 (3: 0.2-1 mg/L). The “MIC grade, A. TERREUS, YAG media” value in assay [13] is listed as 2 (2: 1-5 mg/L). For the same compound, the “MIC grade, A. NIGER, YAG media” value in [14] is listed as 3 (3: 0.2-1 mg/L). In addition, the “MIC grade, A. FUMIGATUS, YAG media” value in assay [15] is listed as 3 (3: 0.2-1 mg/L). Moreover, in [16], the “MIC grade, A. FUMIGATUS, RPMI media” value was 2 (2: 5-20 mg/L). In addition, the “MIC grade, A. FUMIGATUS 210, RPMI media” value in [17] is 1 (1: ≥20 mg/L).

(Values after patent publication US20180201592A1, “2-AMINO-1,3,4-THIADIAZINE AND 2-AMINO-1,3,4-OXADIAZINE BASED ANTIFUNGAL AGENTS” (F2G Limited, priority 2015, published 2018).)
